We go through one molecule from patent US8741889B2, “Method of treating non-small cell lung cancer and colon cancer with gamma-secretase inhibitor” (Hoffmann-La Roche Inc, priority 2008, dated 2014).

Data set [1] in a line: Plasma drug exposure in nude mice. The conditions noted are these: for Cmax / AUC(0-t): po, 10 mg/kg. Format: in vivo. The protocol:
Plasma samples were prepared and analyzed for compound (1) by LC/MS/MS. Mean plasma concentrations were calculated from 2 animals/group/time point. Plasma samples with concentration below the limit of quantification (<12.5 ng/ml) were set to zero. The pharmacokinetic parameters were estimated from the mean plasma concentration data. Sampling times were reported as nominal time. The pharmacokinetic parameters reported are the maximum plasma concentration (Cmax), the area under the plasma concentration-time curve from zero to 8 hr (AUC0-8 hr), and dose normalized AUC (AUC0-8 hr/Dose). The Cmax values were taken directly from the plasma concentration-time profiles […] without any extrapolation. The AUC was calculated using the linear trapezoidal rule.

The test system of data set [2] is MiaPaca2 human pancreatic carcinoma xenografts. The data set can be described thus: Antitumor efficacy in MiaPaca2 pancreatic xenografts in nude mice. Type of data set: in vivo. The conditions noted are these: day 37. The protocol: Female (athymic nu/nu) nude mice were obtained from Charles River Laboratories (Wilmington, Mass.), while female SCID-beige mice were purchased from Taconic (Germantown, N.Y.). Mice were used when they were approximately 8-12 weeks old (nudes) or 8-10 weeks old (SCID-beige), and weighed approximately 23-25 grams. The health of all animals was determined daily by gross observation of experimental animals and by the analyses of blood samples of sentinel animals that were housed on the shared shelf racks. All animals were allowed to acclimate and recover from any shipping related stress for a minimum of 72 hours prior to experimental use. Autoclaved water and irradiated food [5058-ms Pico chow (mouse) Purina, Richmond, Ind.] were provided ad libitum, and the animals were maintained on a 12 hour light and dark cycle. Cages, bedding and water bottles were autoclaved before use and were changed weekly. MiaPaca2, AsPC1 and BxPC3 human pancreatic carcinoma cells were purchased from ATCC (Manassas, Va.). BxPC3 and AsPC1 cells were grown in RPMI medium and MiaPaca2 cells were grown in Dulbecco's Modified Essential Medium (DMEM). All culture media were supplemented with 10% (v/v) FBS and 1% (v/v) […]. […] SCID-biege mice were implanted se with 5×10^6 BxPC3 cells in a 1:1 mixture of matrigel:PBS in a volume of 0.2 ml per mouse in the right hind flank on May 22, 2007. […] Formulated compound and vehicle were stored at 4° C. and prepared weekly. The suspension was mixed vigorously prior to administration. Gemcitabine (Gemzar®, Eli Lilly and Company, Indianapolis, Ind., USA) was reconstituted with sterile saline to yield a stock solution of 38 mg/ml for the entire 3-4 week study. […] Nude mice implanted with MiaPaca2 or AsPC1 xenografts were randomized on day 17 and day 9 post cell implant, respectively. SCID-beige mice bearing BxPC3 xenografts were randomized 8 days post implant. […] Treatment for the MiaPaca2 study began on Feb. […] For the MiaPaca2 and AsPC1 studies, qd Compound (1) suspension or q3d gemcitabine treatment ended on day 37 post tumor cell implant, whereas for the BxPC3 study, qd Compound (1) suspension or q3d gemcitabine treatment ended on day 35 post tumor cell implant. For intermittent dosing of Compound (1) suspension in the MiaPaca2 study using the 7+/7−/7+ schedule, treatment ended on day 23, was reinitiated on day 31, and ended day 37. In the combination groups Compound (1) suspension was given sequentially with gemcitabine using the 7+/7−/7+ schedule so that Compound (1) was dosed daily only during the first and third weeks, whereas gemcitabine was dosed q3d during the second week only. Efficacy data was graphically represented as the mean tumor volume+standard error of the mean (SEM). Tumor volumes of treated groups were presented as percentages of tumor volumes of the control groups (% T/C), using the formula: 100×((T−T0)/(C−C0)), where T represented mean tumor volume of a treated group on a specific day during the experiment, T0 represented mean tumor volume of the same […] on the first day of treatment; C represented mean tumor volume of a control group on the specific day during the experiment, and C0 represented mean tumor volume of the same treated group on the first day of treatment. Tumor volume (in cubic millimeters) was calculated using the ellipsoid formula: (D×(d2))/2 where ‘D’ represents the large diameter of the tumor, and ‘d’ represents the small diameter. In some cases, tumor regression and/or percent change in tumor volume was calculated using the formula: ((T−T0)/T0)×100 where ‘T’ represents mean tumor volume of the treated group at a particular day, and ‘T0’ represents mean tumor volume of the same treated group at initiation of treatment. Statistical analysis was determined by the rank sum test and One Way Anova and a post-hoc Bonferroni t-test (SigmaStat, version 2.0, Jandel Scientific, San Francisco, Calif.). […]

Data set [3] deals with γ-secretase enzyme complex (Homo sapiens, UniProt P49768). The protocol:
Multiple in vitro assays were utilized to characterize the potency and selectivity of compound (1). The primary in vitro assay uses cell-free membrane preparations to provide the -secretase enzyme complex as an in vitro assay. […] The cellular processing of APP is measured using an ELISA-based readout. HEK293 cells have been engineered to over-express APP. Processing is measured by an ELISA-based quantitation of the A 1-40 secretase product. Cellular Notch inhibitory activity is measured using HEK293 cell line stably expressing a truncated human Notch 1 fused in its intracellular domain to a VP16/[…] transcriptional activator, which drives a firefly luciferase gene Inhibition of Notch processing produces a reduction in luciferase reporter activity as measured by its chemo luminescence.

Where two headings read alike, the source gives them in different places.

In the case of `CC(C)(C(=O)NCC(F)(F)C(F)(F)F)C(=O)N[C@@H]1C(=O)Nc2ccccc2-c2ccccc21` [Compound (1), 2,2-Dimethyl-N—((S)-6-oxo-6,7-dihydro-5H-dibenzo[b,d]azepin-7-yl)-N′-(2,2,3,3,3-pentafluoro-propyl)-malonamide], the “dose proportionality of plasma exposure” value in data set [1] (independent PK study in nude mice, up to 30 mg/kg) is reported as “excellent dose proportionality”. In addition, in data set [1] (mouse), the oral bioavailability entry is recorded as “moderate to high”. The Cmax is 708 ng/mL in data set [1] (nude, mouse, plasma, 10 mg/kg po qd, Day 21 (chronic dosing)) and 559 ng/mL in data set [1] (nude, mouse, plasma, 10 mg/kg po, Day 1 (single dose, naïve mice)). Also, the AUC(0-t) in data set [1] (nude, mouse, plasma, 10 mg/kg po qd, Day 21 (chronic dosing), read-out: AUC0-8 hr) is 923 ng·h/mL; in data set [1] (nude, mouse, plasma, 10 mg/kg po, Day 1 (single dose, naïve mice), read-out: AUC0-8 hr), 1280 ng·h/mL; in data set [1] (nude, mouse, plasma, oral daily dosing of 10 mg/kg, read-out: Exposures (AUC24h) producing efficacy), approximately 1100 ng·h/mL. Besides, the AUC in data set [1] (nude, mouse, plasma, oral daily dosing of 10 mg/kg, read-out: Exposures producing efficacy (AUC24/day)) was approximately 1100 ng·h/mL. Besides, the “% TGI” value turned out to be 39% in data set [2] (1 mg/kg po qd × 21 days); 42% in data set [2] (3 mg/kg po qd × 21 days); 53% in data set [2] (10 mg/kg po qd × 21 days); 51% in data set [2] (10 mg/kg po, 7+/7−/7+); 58% in data set [2] (30 mg/kg po, 7+/7−/7+); 48% in data set [2] (60 mg/kg po, 7+/7−/7+). The “IC50 in cellular and cell-free assays” value in data set [3] was “low nanomolar range”.
